Results on 29 compounds are retold here after publication PMC8286840, “Identifying SARS-CoV-2 antiviral compounds by screening for small molecule inhibitors of Nsp3 papain-like protease” (Biochemical Journal, 2021).

Experiment [1] deals with T1, SARS-CoV-2 PLpro (nsp3 1564–1878) (Severe acute respiratory syndrome coronavirus 2, UniProt P0DTD1). Nature of the experiment: biochemical. The arrangement: FRET-quenched peptide (Pro3) cleavage by PLpro, 10 min pre-incubation, slope over 20 min, normalised to no-compound control. The following applies: low concentration screen, read-out: % of control remaining.
The target in experiment [2] is T1, SARS-CoV-2 PLpro (nsp3 1564–1878). The experiment in a line: biochemical. Details: FRET-quenched peptide (Pro3) cleavage by PLpro, 10 min pre-incubation, slope over 20 min, normalised to no-compound control. The conditions noted are these: high concentration screen, read-out: % of control remaining.

Counter-ions that a name gives are not always drawn. Like-named read-outs stand apart in the source and are kept apart here.

`CSCCNc1nonc1-c1noc(=O)n1-c1ccc(F)c(Br)c1` [IDO-IN-12]: the remaining activity at 1.25 µM in experiment [1] (Well no.=8177) stood at 105%. Moreover, the remaining activity at 3.75 µM in experiment [2] (Well no.=8177) came out at 99.7%.
As for `CCN(CC)C(=O)c1ccc(Nc2nc(OCC3CCCCC3)c3[nH]cnc3n2)cc1` [Cdk2 Inhibitor IV, NU6140], the remaining activity at 1.25 µM in experiment [1] (Well no.=2418) was found to be 100%. Moreover, in experiment [2] (Well no.=2418), the remaining activity at 3.75 µM was determined as 94.5%.
`O=c1c(O)c(-c2ccc(O)c(O)c2)oc2cc(O)ccc12` [Fisetin]: the remaining activity at 1.25 µM is 91.4% in experiment [1] (Well no.=3443) and 104% in experiment [1] (Well no.=6254). In addition, the results for the remaining activity at 3.75 µM in experiment [2] (Well no.=3443) and in experiment [2] (Well no.=6254) were 95% and 99.6%, respectively.
For `C[C@@H](N)[C@H]1CC[C@H](C(=O)Nc2ccncc2)CC1` [Y-27632 dihydrochloride - trans-4-[(1R)-1-Aminoethyl]-N-4-pyridinylcyclohexanecarboxamide dihydrochloride], in experiment [1] (Well no.=2350), the remaining activity at 1.25 µM amounted to 105%. Also, in experiment [2] (Well no.=2350), the remaining activity at 3.75 µM came to 104%.
For the compound `CCN1C(=O)C=CC1=O` [N-Ethylmaleimide], the results for the remaining activity at 1.25 µM in experiment [1] (Well no.=461) and in experiment [1] (Well no.=4101) were 102% and 88.4%, respectively. The remaining activity at 3.75 µM is 101% in experiment [2] (Well no.=461) and 95.8% in experiment [2] (Well no.=4101).
`Cn1cnc2c(ncn2[C@@H]2O[C@H](CO)[C@@H](O)[C@H]2O)c1=O` [1-Methylinosine]: the remaining activity at 1.25 µM was found to be 103% in experiment [1] (Well no.=7167) and 102% in experiment [1] (Well no.=7858). Moreover, the remaining activity at 3.75 µM in experiment [2] (Well no.=7167) turned out to be 101%.
For the compound `O=c1c(O)c(-c2ccc(O)c(O)c2)oc2cc(O)cc(O)c12` [Quercetin], the remaining activity at 1.25 µM in experiment [1] (Well no.=5716) came out at 91.5%. Also, the remaining activity at 3.75 µM in experiment [2] (Well no.=5716) was determined as 96%.
Take `O=C(Nc1cccc(-c2ccccc2)c1)OC1CCCCC1` [URB602]: in experiment [1] (Well no.=5392), the remaining activity at 1.25 µM stood at 99.5%. Moreover, the remaining activity at 3.75 µM in experiment [2] (Well no.=5392) stood at 105%.
For `COC(=O)C1=C(C)NC(C)=C(C(=O)OCCN(C)Cc2ccccc2)C1c1cccc([N+](=O)[O-])c1` (stereo not drawn) [Nicardipine.HCl], the remaining activity at 1.25 µM in experiment [1] (Well no.=1593) was 104%. Besides, the remaining activity at 3.75 µM in experiment [2] (Well no.=1593) turned out to be 104%.
Take `C[C@@H]1O[C@@H](O[C@H]2[C@H](Oc3cc(O)c4c(c3)O[C@H](c3ccc(O)cc3)CC4=O)O[C@H](CO)[C@@H](O)[C@@H]2O)[C@H](O)[C@H](O)[C@H]1O` [Naringin]: the figures for the remaining activity at 1.25 µM in experiment [1] (Well no.=3665) and in experiment [1] (Well no.=8098) were 98.4% and 97.4%, respectively. Moreover, the remaining activity at 3.75 µM was 99.9% in experiment [2] (Well no.=3665) and 97.5% in experiment [2] (Well no.=8098).
For `Nc1nc(-n2cccn2)nc(-n2cccn2)c1Br` [Taminadenant], the remaining activity at 1.25 µM in experiment [1] (Well no.=8565) is 99.5%. In addition, in experiment [2] (Well no.=8565), the remaining activity at 3.75 µM was 90.5%.
As for `COc1ccccc1OCC(O)CO` (stereo not drawn) [Guaifenesin], in experiment [1] (Well no.=2180), the remaining activity at 1.25 µM was 97.5%. Also, in experiment [2] (Well no.=2180), the remaining activity at 3.75 µM came to 100%.
Turning to `COc1cc2nccc(Oc3ccc(NC(=O)Nc4ccc(F)cc4F)c(F)c3)c2cc1OC` [N-(2,4-Difluorophenyl)-N'-[4-[(6,7-dimethoxy-4-quinolinyl)oxy]-2-fluorophenyl]urea], the remaining activity at 1.25 µM in experiment [1] (Well no.=2572) turned out to be 92%. In experiment [2] (Well no.=2572), the remaining activity at 3.75 µM is 98.1%.
In the case of `Cc1ccc(-c2cc(C(F)(F)F)nn2-c2ccc(S(N)(=O)=O)cc2)cc1` [Celecoxib], the remaining activity at 1.25 µM in experiment [1] (Well no.=1818) amounted to 88.6%. In addition, the remaining activity at 3.75 µM in experiment [2] (Well no.=1818) turned out to be 88.2%.
On to `CN(C)c1ccc(/C=C2\C(=O)Nc3ccccc32)cc1` [SU 4312], for which the remaining activity at 1.25 µM in experiment [1] (Well no.=1179) worked out at 97.9%. For the same compound, the remaining activity at 3.75 µM in experiment [2] (Well no.=1179) came out at 101%.
Turning to `O=C(CCCN1CCC2(CC1)C(=O)NCN2c1ccccc1)c1ccc(F)cc1` [Spiperone hydrochloride], the remaining activity at 1.25 µM in experiment [1] (Well no.=1268) was 105%. In experiment [2] (Well no.=1268), the remaining activity at 3.75 µM is 105%.
For the compound `CN(C)CC[C@H](CSc1ccccc1)Nc1ccc(S(=O)(=O)NC(=O)c2ccc(N3CCN(Cc4ccccc4-c4ccc(Cl)cc4)CC3)cc2)cc1[N+](=O)[O-]` [ABT-737], the remaining activity at 1.25 µM in experiment [1] (Well no.=2692) turned out to be 102%; in experiment [1] (Well no.=6348) it was 99.7%; in experiment [1] (Well no.=8314), 98.5%. Besides, the remaining activity at 3.75 µM was found to be 101% in experiment [2] (Well no.=2692), 96.5% in experiment [2] (Well no.=6348) and 97.8% in experiment [2] (Well no.=8314).
Consider `O=S(=O)(c1cccc2cnccc12)N1CCCNCC1` [HA 1077, Dihydrochloride Fasudil], for which, in experiment [1] (Well no.=2646), the remaining activity at 1.25 µM is 94.1%. Moreover, the remaining activity at 3.75 µM in experiment [2] (Well no.=2646) came out at 100%.
Consider `COC(=O)c1cc(OC)c2c(c1-c1c(CO)cc(OC)c3c1OCO3)OCO2` [Bicyclol], for which the remaining activity at 1.25 µM in experiment [1] (Well no.=5916) was 107%. Moreover, the remaining activity at 3.75 µM in experiment [2] (Well no.=5916) is 100%.
With `C/C=C/c1ccc(OC)cc1` [Anethole, trans-], in experiment [1] (Well no.=1916), the remaining activity at 1.25 µM worked out at 97.9%. In experiment [2] (Well no.=1916), the remaining activity at 3.75 µM was 95.1%.
As for `CCCCc1ncc(/C=C(\Cc2cccs2)C(=O)O)n1Cc1ccc(C(=O)O)cc1` [Eprosartan mesylate], in experiment [1] (Well no.=1882), the remaining activity at 1.25 µM is 98.4%. Further, the remaining activity at 3.75 µM in experiment [2] (Well no.=1882) turned out to be 99.1%.
With `CN(C)CC/C=C1/c2ccccc2COc2ccc(CC(=O)O)cc21` [Olopatadine (hydrochloride)], the remaining activity at 1.25 µM in experiment [1] (Well no.=8201) came to 104%. Moreover, the remaining activity at 3.75 µM in experiment [2] (Well no.=8201) was determined as 102%.
`CCCc1c2oc(C(=O)O)cc(=O)c2cc2c(=O)cc(C(=O)O)n(CC)c12` [Nedocromil]: the remaining activity at 1.25 µM in experiment [1] (Well no.=6525) amounted to 95.3%. Also, the remaining activity at 3.75 µM in experiment [2] (Well no.=6525) was determined as 95%.
With `Oc1ccc2c3c1O[C@H]1c4oc5ccccc5c4C[C@@]4(O)[C@@H](C2)N(CC2CC2)CC[C@]314` [Naltriben methanesulfonate], in experiment [1] (Well no.=1036), the remaining activity at 1.25 µM came out at 92.8%. Besides, the remaining activity at 3.75 µM in experiment [2] (Well no.=1036) came to 97.4%.
As for `O=C(O)CC[C@H]1CC[C@@](c2cc(F)ccc2F)(S(=O)(=O)c2ccc(Cl)cc2)CC1` [MK-0752], the remaining activity at 1.25 µM in experiment [1] (Well no.=4639) turned out to be 97.6%. In experiment [2] (Well no.=4639), the remaining activity at 3.75 µM was found to be 99.5%.
In the case of `COc1cc2c3c(c1OC)-c1ccccc1C[C@H]3N(C)CC2` [Nuciferine], the remaining activity at 1.25 µM in experiment [1] (Well no.=8335) was found to be 95.2%. In addition, the remaining activity at 3.75 µM in experiment [2] (Well no.=8335) worked out at 89%.
Regarding `NCCCNCCCCNCCCN` [Spermine tetrahydrochloride], the remaining activity at 1.25 µM in experiment [1] (Well no.=1312) amounted to 100%. Also, the remaining activity at 3.75 µM in experiment [2] (Well no.=1312) was 101%.
Regarding `CN1[C@@H]2CC(O)C[C@H]1[C@@H]1O[C@@H]12` (stereo partly drawn) [Scopine (hydrochloride)], the remaining activity at 1.25 µM in experiment [1] (Well no.=6555) worked out at 94.2%. Also, the remaining activity at 3.75 µM in experiment [2] (Well no.=6555) came to 101%.
Take `COc1ccc2cc(-c3nc(-c4ccc([S+](C)[O-])cc4)[nH]c3-c3ccncc3)ccc2c1` (stereo not drawn) [Tie2 kinase inhibitor]: the remaining activity at 1.25 µM in experiment [1] (Well no.=4965) is 91%. In addition, in experiment [2] (Well no.=4965), the remaining activity at 3.75 µM was determined as 90.7%.
